Patent publication US9029337B2, “Modulation of factor 7 expression” (Isis Pharmaceuticals, Inc., priority 2007, dated 2015)
Strand notation (5' to 3'): a small letter for the sugar, then the base; units joined by * are phosphorothioate-linked, units joined directly phosphodiester-linked; [ ] holds rarer units or linkages, { } end groups; capitals alone tell only the bases. e = 2'-O-(2-methoxyethyl) (MOE); [5mC] = 5-methylcytosine; d = 2'-deoxy (DNA)

Test system: human Factor 7 mRNA
Test: Antisense inhibition of human Factor 7 with short (14-mer) oligonucleotides in HepB3 cells, electroporation 1,000 nM
Format: cell-based
Details: electroporation, 1,000 nM antisense oligonucleotide, approximately 24 hours, Factor 7 mRNA relative to untreated control cells
In short: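 14-mer 2-10-2 MOE gapmers (full phosphorothioate, 5-methyl-C) electroporated at 1,000 nM into HepB3 cells at 20,000 cells/well. After ~24 h, Factor 7 mRNA by real-time RT-PCR, normalized to RiboGreen total RNA. Reported as % inhibition relative to untreated cells.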

Substance: 435811 (antisense eG*eT*dG*dG*dT*d[5mC]*dA*dA*dG*dG*dA*dT*eG*eA) [compound 435811]
- % Inhibition: 27%

Substance: 435812 (antisense eG*e[5mC]*dT*dG*dA*dG*d[5mC]*dA*dG*dA*dG*dA*eT*e[5mC]) [compound 435812]
- % Inhibition: 35%

Substance: 435813 (antisense eG*eG*dA*dT*dG*d[5mC]*dA*d[5mC]*dA*d[5mC]*d[5mC]*dA*eG*eG) [compound 435813]
- % Inhibition: 55%

Substance: 435814 (antisense eT*eG*dA*d[5mC]*dG*dA*dG*dA*dG*dG*dA*d[5mC]*e[5mC]*eA) [compound 435814]
- % Inhibition: 31%

Substance: 435815 (antisense e[5mC]*eT*d[5mC]*dT*dT*d[5mC]*d[5mC]*dG*dA*dG*d[5mC]*dA*eG*e[5mC]) [compound 435815]
- % Inhibition: 59%

Substance: 435816 (antisense eT*e[5mC]*d[5mC]*dA*dA*dA*dG*dG*dA*d[5mC]*dA*dA*eG*eG) [compound 435816]
- % Inhibition: 4%

Substance: 435817 (antisense e[5mC]*eT*dG*dA*dG*d[5mC]*dT*dT*dG*dG*d[5mC]*dA*e[5mC]*e[5mC]) [compound 435817]
- % Inhibition: 39%

Substance: 435818 (antisense eG*eT*d[5mC]*dA*dT*d[5mC]*d[5mC]*dT*dT*dG*dT*d[5mC]*eT*eG) [compound 435818]
- % Inhibition: 43%

Substance: 435819 (antisense eT*eT*dT*dG*dT*d[5mC]*d[5mC]*dA*dG*dT*dA*dA*eG*eA) [compound 435819]
- % Inhibition: 1%

Substance: 435820 (antisense e[5mC]*eA*dT*d[5mC]*d[5mC]*dT*dA*dG*dT*d[5mC]*dA*d[5mC]*eT*eG) [compound 435820]
- % Inhibition: 19%

Substance: 435821 (antisense eA*eG*dT*d[5mC]*dA*dG*dT*dA*d[5mC]*dA*dG*dA*e[5mC]*eA) [compound 435821]
- % Inhibition: 0%

Substance: 435822 (antisense e[5mC]*e[5mC]*dA*dG*dG*dA*dG*d[5mC]*d[5mC]*dT*dT*dT*eA*e[5mC]) [compound 435822]
- % Inhibition: 37%

Substance: 435823 (antisense eT*eG*dA*dG*dT*d[5mC]*d[5mC]*d[5mC]*dA*dG*dG*d[5mC]*eT*eG) [compound 435823]
- % Inhibition: 41%

Substance: 435824 (antisense e[5mC]*e[5mC]*dT*dA*dA*dA*dG*dA*dT*dG*dA*dA*eT*e[5mC]) [compound 435824]
- % Inhibition: 21%

Substance: 435825 (antisense e[5mC]*eT*dG*dG*dT*dT*dT*dT*dG*dG*dA*dG*eG*eA) [compound 435825]
- % Inhibition: 0%

Substance: 435826 (antisense eA*eA*dG*dT*dG*dG*d[5mC]*dT*dG*dG*d[5mC]*dT*eG*eA) [compound 435826]
- % Inhibition: 27%

Substance: 435827 (antisense eT*e[5mC]*dA*dG*dA*dA*dA*dG*dA*dT*dG*d[5mC]*eA*eG) [compound 435827]
- % Inhibition: 5%

Substance: 435828 (antisense eG*eA*d[5mC]*d[5mC]*dT*dG*d[5mC]*d[5mC]*d[5mC]*dA*dT*dT*eT*eT) [compound 435828]
- % Inhibition: 0%

Substance: 435829 (antisense eG*eG*dG*dT*dA*dG*dA*d[5mC]*d[5mC]*d[5mC]*dT*d[5mC]*eA*eG) [compound 435829]
- % Inhibition: 18%

Substance: 435830 (antisense eT*eG*dA*dT*dT*dT*dT*dG*d[5mC]*dA*dA*dA*eG*eA) [compound 435830]
- % Inhibition: 0%

Substance: 435831 (antisense eG*eA*dT*d[5mC]*dT*dT*d[5mC]*dA*d[5mC]*dA*dT*dA*eG*e[5mC]) [compound 435831]
- % Inhibition: 51%

Substance: 435832 (antisense eT*eG*d[5mC]*dT*d[5mC]*dA*dG*dA*d[5mC]*d[5mC]*dT*dG*eG*e[5mC]) [compound 435832]
- % Inhibition: 70%

Substance: 435833 (antisense eA*eG*dA*d[5mC]*dA*d[5mC]*dT*dT*dG*dA*dG*dA*eG*e[5mC]) [compound 435833]
- % Inhibition: 24%

Substance: 435834 (antisense eT*eG*dA*d[5mC]*dA*dG*d[5mC]*dA*d[5mC]*dG*dA*dA*eG*e[5mC]) [compound 435834]
- % Inhibition: 20%

Substance: 435835 (antisense eT*eT*dA*dT*dT*dT*dG*dG*dG*d[5mC]*dA*dT*eG*eG) [compound 435835]
- % Inhibition: 7%

Substance: 435836 (antisense e[5mC]*eT*dA*dG*dG*dT*d[5mC]*dT*dG*d[5mC]*dA*dG*eG*eG) [compound 435836]
- % Inhibition: 41%

Substance: 435837 (antisense e[5mC]*eT*d[5mC]*dG*d[5mC]*d[5mC]*dT*dG*dG*dA*dA*dG*eG*eA) [compound 435837]
- % Inhibition: 37%

Substance: 435838 (antisense eT*e[5mC]*d[5mC]*dA*dT*dG*dG*dA*d[5mC]*dA*d[5mC]*dT*eA*eA) [compound 435838]
- % Inhibition: 29%

Substance: 435839 (antisense eG*eG*dT*d[5mC]*dA*dG*d[5mC]*dT*dG*dG*dT*d[5mC]*eT*eG) [compound 435839]
- % Inhibition: 14%

Substance: 435840 (antisense eG*eG*dG*d[5mC]*d[5mC]*d[5mC]*dG*d[5mC]*d[5mC]*dA*d[5mC]*dT*eG*eG) [compound 435840]
- % Inhibition: 0%

Substance: 435841 (antisense e[5mC]*eT*d[5mC]*dG*dG*dA*d[5mC]*dA*dA*dA*dA*dG*eA*eG) [compound 435841]
- % Inhibition: 1%

Substance: 435842 (antisense eA*eT*dT*dT*d[5mC]*d[5mC]*d[5mC]*dA*dT*dT*dG*dG*e[5mC]*eA) [compound 435842]
- % Inhibition: 0%

Substance: 435843 (antisense eG*e[5mC]*dT*dG*dG*dA*dG*d[5mC]*dT*dG*dA*dG*e[5mC]*e[5mC]) [compound 435843]
- % Inhibition: 0%

Substance: 435844 (antisense eT*eG*dG*d[5mC]*d[5mC]*dA*dG*dT*dG*dG*d[5mC]*d[5mC]*eT*e[5mC]) [compound 435844]
- % Inhibition: 30%

Substance: 435845 (antisense eG*e[5mC]*dT*d[5mC]*dA*dT*dG*dG*d[5mC]*dA*dG*dA*e[5mC]*eA) [compound 435845]
- % Inhibition: 21%

Substance: 435846 (antisense eT*eG*dG*dA*dG*dA*dG*dA*d[5mC]*d[5mC]*dA*dA*eT*eG) [compound 435846]
- % Inhibition: 7%

Substance: 435847 (antisense eT*eG*dG*dT*dG*dT*dG*d[5mC]*dA*d[5mC]*dA*d[5mC]*eA*eT) [compound 435847]
- % Inhibition: 36%

Substance: 435848 (antisense eT*eG*dG*d[5mC]*d[5mC]*dA*d[5mC]*dT*dG*d[5mC]*d[5mC]*dT*e[5mC]*eA) [compound 435848]
- % Inhibition: 32%

Substance: 435849 (antisense eT*eG*d[5mC]*d[5mC]*dG*dT*dA*dG*dT*dG*dG*d[5mC]*e[5mC]*eG) [compound 435849]
- % Inhibition: 31%

Substance: 435850 (antisense e[5mC]*eT*dT*dG*dG*d[5mC]*d[5mC]*dA*dG*dT*dG*dT*eG*eG) [compound 435850]
- % Inhibition: 15%

Substance: 435851 (antisense eA*e[5mC]*dA*dG*dG*d[5mC]*d[5mC]*dA*dG*dG*d[5mC]*dT*eG*eG) [compound 435851]
- % Inhibition: 0%
